Laboratory results taken from PubChem BioAssay AID743297 (The Scripps Research Institute Molecular Screening Center, 2014).
Calls of active or inactive are those of the source.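 How the source made its calls: active means IC50 against TDP2 at or below a set limit; inactive means IC50 above that limit.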

Molecular target: Tyrosyl-DNA phosphodiesterase 2 (Homo sapiens) (UniProt O95551)
Assay: human TDP2 enzyme inhibitors, dose response, biochemical, epi absorbance, IC50 (AID 743297)
Details: recombinant TDP2, T5PNP hydrolysis, absorbance 415 nm

Chain of Tyrosyl-DNA phosphodiesterase 2 (Homo sapiens) (O95551 whole entry, looked up): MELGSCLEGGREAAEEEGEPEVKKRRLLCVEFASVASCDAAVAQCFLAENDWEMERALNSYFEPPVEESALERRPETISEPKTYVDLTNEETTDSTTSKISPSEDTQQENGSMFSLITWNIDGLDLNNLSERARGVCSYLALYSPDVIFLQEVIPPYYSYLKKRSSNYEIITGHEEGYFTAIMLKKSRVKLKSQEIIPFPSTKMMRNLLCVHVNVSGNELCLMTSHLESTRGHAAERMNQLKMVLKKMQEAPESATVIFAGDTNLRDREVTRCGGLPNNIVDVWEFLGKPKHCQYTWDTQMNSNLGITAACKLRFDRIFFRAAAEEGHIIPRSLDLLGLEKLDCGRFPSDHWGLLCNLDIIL

IC50: inactive
SMILES: C[c-]1[c-](C)[c-](C)[c-](C)[c-]1C.[Fe].c1cc2nccc(N3CCCC3)[c-]2c1 (stereo unspecified)
